Experimental data from ChEMBL document CHEMBL5505987 (Eur J Med Chem, 2024).
Activity calls are given as the source filed them. The rule behind the calls is not given here.

Assays:
MDA-MB-231 [1] = assay: Cytotoxicity against human MDA-MB-231 cells assessed as cell viability by MTT assay; assay type: functional, cell-based
MCF7 = assay: Cytotoxicity against human MCF7 cells assessed as cell viability by MTT assay; assay type: functional, cell-based
4T1 [2] = assay: Cytotoxicity against mouse 4T1 cells assessed as cell viability by MTT assay; assay type: functional, cell-based
HeLa = assay: Cytotoxicity against human HeLa cells assessed as cell viability by MTT assay; assay type: functional, cell-based
A549 = assay: Cytotoxicity against human A549 cells assessed as cell viability by MTT assay; assay type: functional, cell-based
[3] = Cytotoxicity against human BEAS-2B cells assessed as cell viability by MTT assay; assay type: toxicity, cell-based
[4] = Cytotoxicity against human HFF cells assessed as cell viability by MTT assay; assay type: toxicity, cell-based
MDA-MB-231 [5] = assay: Anti-proliferative activity against human MDA-MB-231 cells assessed as cell viability measured after 24 hrs by MTT assay; assay type: functional, cell-based; conditions: dose 1-8 µM
4T1 [6] = assay: Anti-proliferative activity against mouse 4T1 cells assessed as cell viability measured after 24 hrs by MTT assay; assay type: functional, cell-based; conditions: dose 1-8 µM
MDA-MB-231 [7] = assay: Inhibition of colony formation in human MDA-MB-231 cells assessed as reduction in colony formation treated for 10 days medium refreshed every two days by crustal violet based assay; assay type: functional, cell-based; conditions: time 10.0 day
4T1 [8] = assay: Inhibition of colony formation in mouse 4T1 cells assessed as reduction in colony formation treated for 10 days medium refreshed every two days by crustal violet based assay; assay type: functional, cell-based; conditions: time 10.0 day
MDA-MB-231 [9] = assay: Reduction in PCNA protein expression in human MDA-MB-231 cells by Western blotting analysis; assay type: functional, cell-based; conditions: dose 1-4 µM
MDA-MB-231 [10] = assay: Anti-invasive activity in human MDA-MB-231 cells assessed as reduction in cell invasion incubated for 24 hrs by Transwell assay; assay type: functional, cell-based; conditions: dose 3-6 µM
4T1 [11] = assay: Anti-invasive activity in mouse 4T1 cells assessed as reduction in cell invasion incubated for 24 hrs by Transwell assay; assay type: functional, cell-based; conditions: dose 3-6 µM
MDA-MB-231 [12] = assay: Antimigratory activity against human MDA-MB-231 cells assessed as decrease in migration of tumor cells into scratching region at 8 to 10 uM incubated for 12 to 24 hrs by Wound healing assay; assay type: functional, cell-based; conditions: dose 8-10 µM, time 12-24 hrs
4T1 [13] = assay: Antimigratory activity against mouse 4T1 cells assessed as decrease in migration of tumor cells into scratching region at 8 to 10 uM incubated for 12 to 24 hrs by Wound healing assay; assay type: functional, cell-based; conditions: dose 8-10 µM, time 12-24 hrs
MDA-MB-231 [14] = assay: Anti-metastatic activity in human MDA-MB-231 cells assessed as decrease in vimentin protein level at 1 to 4 uM by Western blotting analysis; assay type: functional, cell-based; conditions: dose 1-4 µM
MDA-MB-231 [15] = assay: Anti-metastatic activity in human MDA-MB-231 cells assessed as decrease in ZEB1 protein level at 1 to 4 uM by Western blotting analysis; assay type: functional, cell-based; conditions: dose 1-4 µM
MDA-MB-231 [16] = assay: Anti-metastatic activity in human MDA-MB-231 cells assessed as increase in E-cadherin protein level at 1 to 4 uM by Western blotting analysis; assay type: functional, cell-based; conditions: dose 1-4 µM
MDA-MB-231 [17] = assay: Induction of apoptosis in human MDA-MB-231 cells assessed as increase in apoptotic rate at 1 uM incubated for 24 hrs by Annexin V-FITC/PI double staining by flow cytometry; assay type: functional
MDA-MB-231 [18] = assay: Induction of apoptosis in human MDA-MB-231 cells assessed as increase in apoptotic rate at 4 uM incubated for 24 hrs by Annexin V-FITC/PI double staining by flow cytometry; assay type: functional
4T1 [19] = assay: Induction of apoptosis in mouse 4T1 cells assessed as increase in apoptotic rate at 1.5 uM incubated for 24 hrs by Annexin V-FITC/PI double staining by flow cytometry; assay type: functional
4T1 [20] = assay: Induction of apoptosis in mouse 4T1 cells assessed as increase in apoptotic rate at 6 uM incubated for 24 hrs by Annexin V-FITC/PI double staining by flow cytometry; assay type: functional
MDA-MB-231 [21] = assay: Induction of apoptosis in human MDA-MB-231 cells assessed as decrease in Bcl-2 expression at 1 to 4 uM incubated for 24 hrs by Western blotting analysis; assay type: functional, cell-based; conditions: dose 1-4 µM
MDA-MB-231 [22] = assay: Induction of apoptosis in human MDA-MB-231 cells assessed as increase in Bax expression at 1 to 4 uM incubated for 24 hrs by Western blotting analysis; assay type: functional, cell-based; conditions: dose 1-4 µM
MDA-MB-231 [23] = assay: Induction of apoptosis in human MDA-MB-231 cells assessed as increase in cleaved PARP expression at 1 to 4 uM incubated for 24 hrs by Western blotting analysis; assay type: functional, cell-based; conditions: dose 1-4 µM
MDA-MB-231 [24] = assay: Induction of apoptosis in human MDA-MB-231 cells assessed as increase in cleaved caspase 3 expression at 1 to 4 uM incubated for 24 hrs by Western blotting analysis; assay type: functional, cell-based; conditions: dose 1-4 µM
MDA-MB-231 [25] = assay: Induction of apoptosis in human MDA-MB-231 cells assessed as increase in cleaved caspase 9 expression at 1 to 4 uM incubated for 24 hrs by Western blotting analysis; assay type: functional, cell-based; conditions: dose 1-4 µM
MDA-MB-231 [26] = assay: Induction of cell cycle arrest in human MDA-MB-231 cells assessed as accumulation of cells at G0/G1 phase at 1 uM measured after 24 hrs by PI staining by flow cytometry; assay type: functional
MDA-MB-231 [27] = assay: Induction of cell cycle arrest in human MDA-MB-231 cells assessed as accumulation of cells at G0/G1 phase at 4 uM measured after 24 hrs by PI staining by flow cytometry; assay type: functional

## O=C1C[C@@H](c2ccccc2)Oc2cc(O)c([C@H](/C=C/C[C@@H](O)CCc3ccccc3)c3ccccc3)c(O)c21
MDA-MB-231 [1]
  IC50: 4.33 µM
MCF7
  IC50: 8.64 µM
4T1 [2]
  IC50: 2.82 µM
HeLa
  IC50: 2.2 µM
A549
  IC50: 3.21 µM
[3]
  IC50: 5.27 µM
[4]
  IC50: 5.91 µM
MDA-MB-231 [5]
  Activity: Dose-Dependent Effect
4T1 [6]
  Activity: Dose-Dependent Effect
MDA-MB-231 [7]
  inhibition: Dose-Dependent Effect
4T1 [8]
  inhibition: Dose-Dependent Effect
MDA-MB-231 [9]
  inhibition: Dose-Dependent Effect
MDA-MB-231 [10]
  Activity: Dose-Dependent Effect
4T1 [11]
  Activity: Dose-Dependent Effect
MDA-MB-231 [12]
  Activity: Active
4T1 [13]
  Activity: Active
MDA-MB-231 [14]
  Activity: Active
MDA-MB-231 [15]
  Activity: Active
MDA-MB-231 [16]
  Activity: Active
MDA-MB-231 [17]
  Activity: 6.84%
MDA-MB-231 [18]
  Activity: 46.4%
4T1 [19]
  Activity: 6.84%
4T1 [20]
  Activity: 48.24%
MDA-MB-231 [21]
  Activity: Active
MDA-MB-231 [22]
  Activity: Active
MDA-MB-231 [23]
  Activity: Active
MDA-MB-231 [24]
  Activity: Active
MDA-MB-231 [25]
  Activity: Active
MDA-MB-231 [26]
  Activity: 49.59%
MDA-MB-231 [27]
  Activity: 71.78%
